According to PubChem BioAssay AID651770 (Broad Institute, 2012):
Where “and” joins values, the source holds several entries; their conditions need not be identical. Identical values can stand only once. Inconclusive results are not listed. Calls of active or inactive are those of the source.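 The calls were made as follows: active = fitted dose curve reaches a 40% decrease at a concentration up to twice the top valid dose; inconclusive = flat curve showing 30 to 70% expression rise, or poor fit; inactive = the rest.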

System: not listed separately
Experiment: suppression of MITF target gene TRPM1 mRNA, dose response, orthogonal assay for MITF inhibitor project, cell-based, SK-MEL-5, RT-qPCR, dry powder samples (AID 651770)
Details: SK-MEL-5, TRPM1 mRNA qPCR (delta-delta-Ct), overnight; at 35 µM (top of the series)
In the case of `COc1ccc(NC2=C(N3CCCCC3)C(=O)c3ccccc3C2=O)cc1`, the TRPM1 expression decrease is reported as 78% (inactive).

System: SK-MEL-5, TRPM1 mRNA qPCR (delta-delta-Ct), overnight
Experiment: as above
Details: not given
In the case of `O=C1C(Nc2ccccc2)=C(c2ccccc2)C(=O)c2ccccc21`, the AC40 is reported as 8180 nM.
For `CCN1CCN(C2=C(NC(=O)c3ccccc3)C(=O)c3ccccc3C2=O)CC1`, the AC40 was 1160 nM.
`COC1=C(Nc2ccccc2)C(=O)c2ccccc2C1=O` gave an AC40 of 336 nM.
With `COC1=C(NS(=O)(=O)c2cccs2)C(=O)c2ccccc2C1=O` the AC40 was 4390 nM.
Molecule `CN1CCN(C2=C(Nc3ccc(F)cc3F)C(=O)c3ccccc3C2=O)CC1` has an AC40 of 1150 nM.
In the case of `CC(C)N1CCN(C2=C(Nc3ccc(F)cc3)C(=O)c3ccccc3C2=O)CC1`, the AC40 is reported as 4910 nM.
For `O=C1C=C(NS(=O)(=O)c2ccc(Br)cc2)C(=O)c2ccccc21`, the AC40 was 850 nM.
`CC(C)N1CCN(C2=C(Nc3ccc(F)cc3F)C(=O)c3ccccc3C2=O)CC1` showed an AC40 of 2020 nM.
Work on `NC1=C(NS(=O)(=O)c2cccs2)C(=O)c2ccccc2C1=O` yielded an AC40 of 987 nM.
Molecule `COC1=C(NS(=O)(=O)c2ccccc2)C(=O)c2ccccc2C1=O` has an AC40 of 3980 nM.
Work on `O=C1C(NS(=O)(=O)c2cccs2)=C(c2ccccc2)C(=O)c2ccccc21` yielded an AC40 of 1680 nM.
In the case of `O=C1C=C(NS(=O)(=O)c2ccccc2)C(=O)c2ccccc21`, the AC40 is reported as 193 nM.
In the case of `O=C1C(Nc2ccc(Cl)cc2)=C(N2CCCC2)C(=O)c2ccccc21`, the AC40 is reported as 10300 nM.
With `COC1=C(NS(=O)(=O)c2ccc(Br)cc2)C(=O)c2ccccc2C1=O` the AC40 was 4440 nM.
In the case of `NC1=C(NS(=O)(=O)c2ccccc2)C(=O)c2ccccc2C1=O`, the AC40 is reported as 1850 nM.
With `O=C1C=C(Nc2ccccc2)C(=O)c2ccccc21` the AC40 was 740 nM and 323 nM.
Work on `NC1=C(NS(=O)(=O)c2ccc(Br)s2)C(=O)c2ccccc2C1=O` yielded an AC40 of 5240 nM.
Work on `C=CCNC1=C(Cl)C(=O)c2ccccc2C1=O` yielded an AC40 of 943 nM.
`O=C1C=C(Nc2ccc([N+](=O)[O-])c(C(F)(F)F)c2)C(=O)c2ccccc21` gave an AC40 of 302 nM.
`NC1=C(NS(=O)(=O)c2ccc(Br)cc2)C(=O)c2ccccc2C1=O` showed an AC40 of 4090 nM.
For `O=C1C=C(NS(=O)(=O)c2cccs2)C(=O)c2ccccc21`, the AC40 was 333 nM.
Work on `CCN1CCN(C2=C(NS(=O)(=O)c3ccc(Br)cc3)C(=O)c3ccccc3C2=O)CC1` yielded an AC40 of 4930 nM.
With `O=C(NC1=C(Cl)C(=O)c2ccccc2C1=O)c1ccccc1` the AC40 was 164 nM.
Work on `NC1=C(NC(=O)c2ccccc2)C(=O)c2ccccc2C1=O` yielded an AC40 of 722 nM.
With `NC1=CC(=O)c2ccccc2C1=O` the AC40 was 3410 nM.
`CN1CCN(C2=C(NS(=O)(=O)c3ccc(Br)s3)C(=O)c3ccccc3C2=O)CC1` gave an AC40 of 1130 nM.
Work on `CCN1CCN(C2=C(Nc3ccc(F)cc3F)C(=O)c3ccccc3C2=O)CC1` yielded an AC40 of 3190 nM.
In the case of `NS(=O)(=O)c1ccc(NC2=CC(=O)c3ccccc3C2=O)cc1`, the AC40 is reported as 163 nM.
